Usually IC50 stands for the concentration that inhibits the measured activity by half.

Assay [1] deals with non-small cell lung cancer cell line H460. In words: In vitro human cancer cell line cytotoxicity (proliferation) assay in H460, CellTiter-Glo, 72 hours. As to conditions: H460 cells, DMSO condition (no AKR1C3 inhibitor), read-out: CTG H460: Avg IC50 (nM) [Assay Condition: DMSO]. Format: cell-based. The procedure, abridged: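 H460 cells were seeded at 3×10^3 per well and grown 24 h at 37 °C, 5% CO2 before compound addition from 10 mM DMSO stocks. After 72 h further incubation, viability was measured by CellTiter-Glo, and IC50 values in nM were derived from the proliferation data.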

Assay [2] has the same test system. In words: H460 proliferation assay in the presence of 3 uM ASP9521 (AKR1C3 specific inhibitor). Format: cell-based, human. As to conditions: H460 cells, CellTiter-Glo, 72 hours, in the presence of 3 uM ASP9521 added 4 hours prior to compounds; read-out: CTG H460: Avg IC50 (nM) [Assay Condition: ASP9521]. Summed up: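 H460 cells pre-incubated 24 h, then exposed to compounds for 72 h at 37 °C, 5% CO2. Viability read by CellTiter-Glo. ASP9521 (3 uM, AKR1C3 inhibitor) added 4 h before compounds.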

With `O=[N+]([O-])c1ccc2c(c1Oc1ccc(-c3ccc(F)cn3)c(F)c1)CCC2OP(=O)(N1CC1)N1CC1` (stereo not drawn) [Example 92], the half-maximal inhibitory concentration (IC50) in assay [1] is less than 10 nM; in assay [2], 1420 nM.

As to `Cn1c(=O)oc2cc(Oc3cc4c(cc3[N+](=O)[O-])CCC4OP(=O)(N3CC3)N3CC3)ccc21` (stereo not drawn) [Example 174], the half-inhibitory concentration (IC50) in assay [1] (Homo sapiens, NCI-H460, 72 h) is less than 10 nM; in assay [2], 244 nM.

With `CSc1ccc(Oc2c([N+](=O)[O-])ccc3c2CC[C@@H]3OP(=O)(N2CC2)N2CC2)cc1` [Example 466], the IC50 in assay [1] is less than 10 nM; in assay [2] it was 975 nM.

Turning to `O=[N+]([O-])c1ccc2c(c1Oc1ccc(-c3ccc(F)cn3)cc1)CC[C@H]2OP(=O)(N1CC1)N1CC1` [Example 278], the results for the 50% inhibitory concentration (IC50) in assay [1] and in assay [2] were less than 10 nM and 1560 nM, respectively.

`Cc1ccnc(-c2ccc(Oc3c([N+](=O)[O-])ccc4c3CC[C@@H]4OP(=O)(N3CC3)N3CC3)cc2)n1` (single isomer, unassigned) [Example 264]: the IC50 is less than 10 nM in assay [1] (Homo sapiens, NCI-H460, 72 h) and 1370 nM in assay [2].

In the case of `O=[N+]([O-])c1ccc2c(c1Oc1ccccc1)CCC2OP(=O)(N1CC1)N1CC1` (stereo not drawn) [Example 16, 5-nitro-4-phenoxy-2,3-dihydro-1H-inden-1-yl di(aziridin-1-yl)phosphinate], the IC50 in assay [1] (Homo sapiens, NCI-H460, 72 h) was 10 to 50 nM; in assay [2] it was 261 nM.

Regarding `O=[N+]([O-])c1ccc2c(c1Oc1ccc(F)c(OC3CCOCC3)c1)CC[C@@H]2OP(=O)(N1CC1)N1CC1` [Example 495], the 50% inhibitory concentration (IC50) in assay [1] (Homo sapiens, NCI-H460, 72 h) is less than 10 nM; in assay [2], 635 nM.

With `O=C(c1cccc(Oc2c([N+](=O)[O-])ccc3c2CCC3OP(=O)(N2CC2)N2CC2)c1)N1CCCOCC1` (stereo not drawn) [Example 105], the half-inhibitory concentration (IC50) in assay [1] (Homo sapiens, NCI-H460, 72 h) is 10 to 50 nM; in assay [2], 1300 nM.

Regarding `CC(OP(=O)(N1C[C@@H]1C)N1C[C@@H]1C)c1ccc([N+](=O)[O-])c(Oc2ccc(-c3ccccc3)cc2)c1` (stereo partly drawn) [Example 217], the IC50 in assay [1] (Homo sapiens, NCI-H460, 72 h) was less than 10 nM; in assay [2], 1600 nM.

Regarding `COc1cc(Oc2c([N+](=O)[O-])ccc3c2CC[C@@H]3OP(=O)(N2CC2)N2CC2)cc(-c2ncccn2)c1` [Example 357], the IC50 was less than 10 nM in assay [1] (Homo sapiens, NCI-H460, 72 h) and 467 nM in assay [2].

Take `O=[N+]([O-])c1ccc2c(c1Oc1ccc(-c3ccc(Cl)cc3)cc1)CCC2OP(=O)(N1CC1)N1CC1` (stereo not drawn) [Example 45]: the figures for the 50% inhibitory concentration (IC50) in assay [1] and in assay [2] were 10 to 50 nM and 5550 nM, respectively.

In the case of `Cn1nnc(-c2cccc(Oc3c([N+](=O)[O-])ccc4c3CC[C@@H]4OP(=O)(N3CC3)N3CC3)c2)n1` [Example 354], the concentration for half-maximal inhibition (IC50) in assay [1] (Homo sapiens, NCI-H460, 72 h) was less than 10 nM; in assay [2] it was 768 nM.

`O=[N+]([O-])c1ccc2c(c1Oc1ccc(-c3ccncc3)cc1)CCC2OP(=O)(N1CC1)N1CC1` (stereo not drawn) [Example 63]: the IC50 in assay [1] was 10 to 50 nM; in assay [2], 7430 nM.

As for `O=c1ccccn1-c1cccc(Oc2c([N+](=O)[O-])ccc3c2CCC3OP(=O)(N2CC2)N2CC2)c1` (stereo not drawn) [Example 80], the IC50 in assay [1] (Homo sapiens, NCI-H460, 72 h) is less than 10 nM; in assay [2], 909 nM.

As to `O=[N+]([O-])c1ccc2c(c1Oc1ccc(OC3COC3)cc1)CC[C@H]2OP(=O)(N1CC1)N1CC1` [Example 492], the IC50 in assay [1] (Homo sapiens, NCI-H460, 72 h) was less than 10 nM; in assay [2], 778 nM.

With `O=C(c1cccc(Oc2c([N+](=O)[O-])ccc3c2CCC3OP(=O)(N2CC2)N2CC2)c1)N1CCC(F)(F)C1` (stereo not drawn) [Example 101], the IC50 was less than 10 nM in assay [1] (Homo sapiens, NCI-H460, 72 h) and 1210 nM in assay [2].

For the compound `CN(C(=O)c1cccc(Oc2c([N+](=O)[O-])ccc3c2CC[C@@H]3OP(=O)(N2CC2)N2CC2)c1)c1cnn(C)c1` [Example 254], the results for the IC50 in assay [1] and in assay [2] were less than 10 nM and 786 nM, respectively.

For `O=[N+]([O-])c1ccc2c(c1Oc1ccc(-c3ccccc3)cc1)OCCC2OP(=O)(N1CC1)N1CC1` (stereo not drawn) [Example 134], the IC50 in assay [1] (Homo sapiens, NCI-H460, 72 h) was 10 to 50 nM; in assay [2] it was 1510 nM.

Take `COc1ccc(Oc2c([N+](=O)[O-])ccc3c2CC[C@@H]3OP(=O)(N2CC2)N2CC2)cc1-c1ncccn1` [Example 294, (S)-4-(4-methoxy-3-(pyrimidin-2-yl)phenoxy)-5-nitro-2,3-dihydro-1H-inden-1-yl di(aziridin-1-yl)phosphinate]: the IC50 in assay [1] (Homo sapiens, NCI-H460, 72 h) was less than 10 nM; in assay [2] it was 1080 nM.

With `O=[N+]([O-])c1ccc2c(c1Oc1cccc(-n3cc(C(F)F)cn3)c1)CC[C@@H]2OP(=O)(N1CC1)N1CC1` [Example 432], the IC50 in assay [1] (Homo sapiens, NCI-H460, 72 h) was less than 10 nM; in assay [2] it was 4170 nM.

Regarding `O=[N+]([O-])c1ccc2c(c1Oc1ccc(F)c(C3CC3)c1)CCC2OP(=O)(N1CC1)N1CC1` (stereo not drawn) [Example 335], the IC50 in assay [1] was less than 10 nM; in assay [2], 1910 nM.

As for `CC(OP(=O)(N1C[C@H]1C)N1C[C@H]1C)c1ccc([N+](=O)[O-])c(Oc2cccc(C(=O)N(C)C)c2)c1` (stereo partly drawn) [Example 212], the IC50 in assay [1] was less than 10 nM; in assay [2], 958 nM.

As for `O=[N+]([O-])c1ccc2c(c1Oc1ccc(F)c(OCC(F)(F)F)c1)CC[C@H]2OP(=O)(N1CC1)N1CC1` [Example 431], the IC50 in assay [1] (Homo sapiens, NCI-H460, 72 h) is less than 10 nM; in assay [2], 238 nM.

`Cn1cc(Oc2cc(Oc3c([N+](=O)[O-])ccc4c3CC[C@@H]4OP(=O)(N3CC3)N3CC3)ccc2F)cn1` [Example 497]: the 50% inhibitory concentration (IC50) in assay [1] (Homo sapiens, NCI-H460, 72 h) is less than 10 nM; in assay [2] it was 1010 nM.

For the compound `O=[N+]([O-])c1ccc2c(c1Oc1ccc(-n3cc(F)cn3)cc1)CCC2OP(=O)(N1CC1)N1CC1` (racemic) [Example 419], the IC50 in assay [1] is less than 10 nM; in assay [2] it was 1180 nM.

Take `O=[N+]([O-])c1ccc2c(c1Oc1ccc(C(F)(F)F)nc1)CCC2OP(=O)(N1CC1)N1CC1` (stereo not drawn) [Example 26]: the figures for the IC50 in assay [1] and in assay [2] were less than 10 nM and 298 nM, respectively.

With `O=c1ccccn1-c1cccc(Oc2c([N+](=O)[O-])ccc3c2CCC3OP(=O)(N2CC2)N2CC2)c1` (stereo not drawn) [Example 81], the results for the IC50 in assay [1] and in assay [2] were less than 10 nM and 829 nM, respectively.

For `Cc1cc2cc(Oc3c([N+](=O)[O-])ccc4c3CCC4OP(=O)(N3CC3)N3CC3)ccc2n1C` (stereo not drawn) [Example 387], the 50% inhibitory concentration (IC50) was less than 10 nM in assay [1] (Homo sapiens, NCI-H460, 72 h) and 1860 nM in assay [2].

For the compound `O=[N+]([O-])c1ccc2c(c1Oc1cccc(-n3cccn3)c1)CCC2OP(=O)(N1CC1)N1CC1` (stereo not drawn) [Example 113], the IC50 in assay [1] (Homo sapiens, NCI-H460, 72 h) is less than 10 nM; in assay [2], 650 nM.

Turning to `CCC1CN1P(=O)(OCc1ccc([N+](=O)[O-])c(Oc2cccc(C(=O)N(C)C)c2)c1)N1CC1CC` (stereo not drawn) [Example 10], the half-inhibitory concentration (IC50) in assay [1] (Homo sapiens, NCI-H460, 72 h) is less than 10 nM; in assay [2], 271 nM.

On to `O=[N+]([O-])c1ccc2c(c1Oc1cccc(C(F)(F)F)c1)CCC2OP(=O)(N1CC1)N1CC1` (stereo not drawn) [Example 123], for which the 50% inhibitory concentration (IC50) was less than 10 nM in assay [1] (Homo sapiens, NCI-H460, 72 h) and 572 nM in assay [2].

`CC(OP(=O)(N1C[C@H]1C)N1C[C@H]1C)c1ccc([N+](=O)[O-])c(Oc2ccc(C(=O)N(C)C)cc2)c1` (stereo partly drawn) [Example 215]: the IC50 is less than 10 nM in assay [1] (Homo sapiens, NCI-H460, 72 h) and 3780 nM in assay [2].

Regarding `CN(C(=O)c1cccc(Oc2c([N+](=O)[O-])ccc3c2CCC3OP(=O)(N2CC2)N2CC2)c1)c1ccccn1` (stereo not drawn) [Example 247], the 50% inhibitory concentration (IC50) was less than 10 nM in assay [1] and 764 nM in assay [2].

On to `O=[N+]([O-])c1ccc2c(c1Oc1cc(F)cc(-c3ccc(F)cn3)c1)CC[C@@H]2OP(=O)(N1CC1)N1CC1` [Example 358], for which the IC50 in assay [1] (Homo sapiens, NCI-H460, 72 h) is less than 10 nM; in assay [2], 1740 nM.

For `C[C@H](OP(=O)(N1CC1)N1CC1)c1cc2cc(Oc3cccc(C(=O)N4CCC(F)(F)CC4)c3)c([N+](=O)[O-])cc2o1` [Example 563], the IC50 is less than 10 nM in assay [1] and 2110 nM in assay [2].

Take `CC(C)COc1cc(Oc2c([N+](=O)[O-])ccc3c2CC[C@H]3OP(=O)(N2CC2)N2CC2)ccc1F` [Example 499]: the IC50 was less than 10 nM in assay [1] (Homo sapiens, NCI-H460, 72 h) and 918 nM in assay [2].

Values taken from patent US20260167656A1, “PHOSPHORAMIDATE COMPOUNDS AND USES THEREOF” (ALLORION THERAPEUTICS INC, priority 2022, published 2026).
